Experimental data taken from patent US11963962B2, “Platelet count-agnostic methods of treating myelofibrosis” (Sierra Oncology, Inc., priority 2018, dated 2024).
Where “and” joins values, the source holds several entries; their conditions need not be identical. Identical values can stand only once. Marks after values point to notes of the source that are not given here.

Experiments:
Format in all cases: in vivo, human
myelofibrosis [1] = assay: SIMPLIFY-2 Phase 3 trial: total symptom score (TSS) response; details: for TSS Responders / TSS proportion (Wilson 95% CI) / TSS Absolute risk difference (Newcombe 95% CI): SIMPLIFY 2; for TSS Absolute risk difference (Newcombe 95% CI): MMB vs Control
Description: In the SIMPLIFY-2 trial (NCT02101268), the efficacy and safety of MMB was studied in anemic or thrombocytopenic subjects with myelofibrosis who were previously treated with ruxolitinib (RUX). […] Specifically, anemic or thrombocytopenic myelofibrosis patients who had and were previously treated with (RUX) (for at least 28 days) were studied over 24 weeks for response to MMB versus best available treatment (BAT), primarily RUX (89% of patients) but alternatively no treatment or other standard interventions, after which period all patients could receive extended MMB treatment. Previously treated RUX patients who either required red blood cell transfusions or RUX dose reduction with grade 3 thrombocytopenia, anemia, and/or bleeding at grade 3 or worse, with palpable spleen of at least 5 cm and without grade 2 or greater peripheral neuropathy were included in the trial. There was no lower limit for the required baseline platelet count. The primary endpoint was a reduction by at least 35% in the spleen volume at 24 weeks compared with baseline.
(§1) FIG. 8A: SIMPLIFY-1 study of MMB in a first line population previously untreated with JAKi. For SIMPLIFY-1, the goal was non-inferiority over ruxolitinib (RUX) (MMB: N=215 subjects, and RUX: N=217 subjects). FIG. 8B: SIMPLIFY-2 study of second line population of anemic or thrombocytopenic subjects previously treated with RUX (red blood cell (RBC) transfusions on RUX=64%. RUX dose adjustment for: thrombocytopenia=21%; anemia/hematoma=35%). For SIMPLIFY-2, the goal was superiority over best available treatment (BAT) (MMB: N=104 subjects, and BAT: N=52 subjects). In both SIMPLIFY-1 and SIMPLIFY: Primary endpoint: >=35% reduction in spleen volume at 24 weeks. Secondary endpoints: Total symptom score (TSS) response at 24 weeks. Effects on RBC transfusion requirements.
The SIMPLIFY 2 clinical trial data was reanalyzed for subgroups of subjects having particular baseline platelet counts in the MMB versus BAT arms of the study.
(§2) Patient data was analyzed according to the following baseline platelet count (PLT) subgroups and in particular according to a threshold PLT of 150×10^9/L: 1) PLT<50×10^9/L; 2) 50×10^9/L≤PLT<100×10^9/L; 3) 100×10^9/L≤PLT<150×10^9/L. The reanalyzed data is presented in Table 14 (SIMPLIFY 2).

myelofibrosis [2] = assay: SIMPLIFY-1 Phase 3 trial: safety (anemia, platelet counts, hemoglobin)
Protocol: (§3) In the SIMPLIFY-1 trial (NCT01969838), the efficacy and safety of MMB versus ruxolitinib (RUX) was studied in patients with myelofibrosis who were naïve to treatment with a JAK inhibitor and a platelet count of ≥50×10^9/L. Patients (N=432) with high risk or intermediate-2 risk or symptomatic intermediate-1 risk myelofibrosis received 24 weeks of treatment with 200 mg MMB once daily or 20 mg RUX twice a day (or per label), after which all patients could receive open-label momelotinib. […] The primary endpoint was a reduction by at least 35% in the spleen volume at 24 weeks compared with baseline.
The mean platelet count for RUX patients is demonstrably lower than the mean platelet count for MMB patients.
The MMB subjects were thus at lower risk of developing thrombocytopenia (e.g., Grade 3 or 4 thrombocytopenia), or of having to undergo undesirable dose reduction because they were able to largely maintain their platelet counts during therapy.

myelofibrosis [3] = assay: Translational biology Phase 2 study (GS-US-352-1672) in transfusion dependent MF patients
Description: In a translational biology study, we determined the impact of momelotinib on plasma hepcidin, markers of iron storage and availability, erythropoiesis, and inflammation to explore mechanisms of the favorable effects of momelotinib on MF-associated anemia and transfusion independence. See Oh et al. “Hepcidin Suppression by Momelotinib Is Associated With Increased Iron Availability and Erythropoiesis in Transfusion-Dependent Myelofibrosis Patients”, Abstract #4282: Presented at ASH 60th Annual Meeting & Exposition: Dec. 1-4, 2018, San Diego, Calif., the disclosure of which is herein incorporated by reference.
Population: Primary MF (PMF), post-polycythemia vera MF (post-PV MF), or post-essential thrombocythemia MF (post-ET MF). Requiring MF therapy (in the opinion of the investigator). High risk or intermediate-2 (DIPSS). Transfusion Dependent (TD) at baseline. [defined as ≥4 U red blood cell (RBC) transfusion in the 8 weeks prior to the first dose of MMB]. Goal: Exploratory translational biology study (MMB: N=41 subjects). Objectives: Primary objective: determine the transfusion independence response rate (TI; ≥12 week & ≥8 week) for TD subjects with MF treated with momelotinib. Secondary objectives: Evaluate baseline levels and changes in markers of iron metabolism; Assess inhibition of JAK1/2; Evaluate momelotinib pharmacokinetics in transfusion-dependent subjects with MF; and Evaluate changes in circulating cytokine and inflammatory markers.

myelofibrosis [4] = assay: SIMPLIFY-1 Phase 3 trial: splenic response rate (SRR); details: for SRR Responders / SRR proportion (Wilson 95% CI) / SRR Absolute risk difference (Newcombe 95% CI): SIMPLIFY 1, 24 weeks; for SRR Absolute risk difference (Newcombe 95% CI): MMB vs Control
Protocol: as §3, §1
The SIMPLIFY 1 clinical trial data was reanalyzed for subgroups of subjects having particular baseline platelet counts in the MMB versus RUX arms of the study.
as §2, with “to the” for “to a”, “Table 13” for “Table 14”, “(SIMPLIFY 1). Selected data is also illustrated in the following figures.” for “(SIMPLIFY 2).”

Compound: Cl.N#CCNC(=O)c1ccc(-c2ccnc(Nc3ccc(N4CCOCC4)cc3)n2)cc1 [MMB, N-(cyanomethyl)-4-(2-(4-morpholinophenylamino)pyrimidin-4-yl)benzamide]
- TSS symptom response (myelofibrosis [1]; SIMPLIFY 2, second line patients): 26.2%
- TSS Responders (myelofibrosis [1]; 50 ≤ PLT < 100 ×10^9/L): 9
- TSS proportion (Wilson 95% CI) (myelofibrosis [1]; 50 ≤ PLT < 100 ×10^9/L): 0.27
- TSS Absolute risk difference (Newcombe 95% CI) (myelofibrosis [1]; 50 ≤ PLT < 100 ×10^9/L): 0.27
- TSS Responders (myelofibrosis [1]; 100 ≤ PLT < 150 ×10^9/L): 6
- TSS proportion (Wilson 95% CI) (myelofibrosis [1]; 100 ≤ PLT < 150 ×10^9/L): 0.25
- TSS Absolute risk difference (Newcombe 95% CI) (myelofibrosis [1]; 100 ≤ PLT < 150 ×10^9/L): 0.25
- TSS Responders (myelofibrosis [1]; ITT): 27
- TSS proportion (Wilson 95% CI) (myelofibrosis [1]; ITT): 0.26
- TSS Absolute risk difference (Newcombe 95% CI) (myelofibrosis [1]; ITT): 0.20
- TSS Responders (myelofibrosis [1]; PLT < 50 ×10^9/L): 1
- TSS proportion (Wilson 95% CI) (myelofibrosis [1]; PLT < 50 ×10^9/L): 0.11
- TSS Absolute risk difference (Newcombe 95% CI) (myelofibrosis [1]; PLT < 50 ×10^9/L): −0.03
- anemia rate (myelofibrosis [2]; SIMPLIFY 1): 14%
- ≥Grade 3 anemia rate (myelofibrosis [2]; SIMPLIFY 1): 6%
- platelet counts during treatment (myelofibrosis [2]; SIMPLIFY 1, 24 week double blind phase, FIGS. 31-33): able to maintain platelet levels
- hemoglobin change (myelofibrosis [2]; SIMPLIFY 1, after initiating MMB, FIG. 10): rapid and sustained hemoglobin improvement
- ≥8 week transfusion independence rate (myelofibrosis [3]; Phase 2 GS-US-352-1672, TD subjects, N=41): 39.0%
- ≥12 week transfusion independence rate (myelofibrosis [3]; Phase 2 GS-US-352-1672, TD subjects, N=41, listed as momelotinib): 34% and 34.1%
- time to increased serum iron and transferrin (myelofibrosis [3]; after momelotinib treatment initiation, FIG. 13): ≤ 2 weeks
- TI-NR patients with decreased transfusion burden (≥50%) (myelofibrosis [3]; any 8 week period, units of RBC, ≥2 unit decrease): 77.8%
- effect on hepcidin (myelofibrosis [3]; post-MMB administration, FIG. 11): consistently decreased hepcidin
- SRR Responders (myelofibrosis [4]; 50 ≤ PLT < 100 ×10^9/L): 7
- SRR proportion (Wilson 95% CI) (myelofibrosis [4]; 50 ≤ PLT < 100 ×10^9/L): 0.39
- SRR Absolute risk difference (Newcombe 95% CI) (myelofibrosis [4]; 50 ≤ PLT < 100 ×10^9/L): 0.39
- SRR Responders (myelofibrosis [4]; 100 ≤ PLT < 150 ×10^9/L): 4
- SRR proportion (Wilson 95% CI) (myelofibrosis [4]; 100 ≤ PLT < 150 ×10^9/L): 0.14
- SRR Absolute risk difference (Newcombe 95% CI) (myelofibrosis [4]; 100 ≤ PLT < 150 ×10^9/L): 0.08
- SRR Responders (myelofibrosis [4]; ITT): 57
- SRR proportion (Wilson 95% CI) (myelofibrosis [4]; ITT): 0.27
- SRR Absolute risk difference (Newcombe 95% CI) (myelofibrosis [4]; ITT): −0.03
- subjects who did not achieve a spleen response on ruxolitinib but did so after 24 weeks of additional momelotinib treatment (myelofibrosis [4]; SIMPLIFY 1, crossover arm): 16.5%
- spleen response (SRR) at any time in the open label phase (myelofibrosis [4]; SIMPLIFY 1, momelotinib arm): 46.2%
- SRR (myelofibrosis [4]; SIMPLIFY 1, overall): 26.5%
- SRR (myelofibrosis [4]; SIMPLIFY 1, week 24, ITT, all patients): 27%
- SRR (myelofibrosis [4]; SIMPLIFY 1, week 24, ITT, platelets 50-100 (subgroup 2)): 39%
- SRR (myelofibrosis [4]; SIMPLIFY 1, week 24, ITT, platelets 100-150 (subgroup 3)): 14% ‡
- SRR (myelofibrosis [4]; SIMPLIFY 1, week 24, baseline TSS ≥ 6, all patients): 25%
- SRR (myelofibrosis [4]; SIMPLIFY 1, week 24, baseline TSS ≥ 6, platelets 50-100 (subgroup 2)): 43%
- SRR (myelofibrosis [4]; SIMPLIFY 1, week 24, baseline TSS ≥ 6, platelets 100-150 (subgroup 3)): 14% ‡
- SRR (myelofibrosis [4]; SIMPLIFY 1, week 24, baseline TSS ≥ 10, all patients): 24%
- SRR (myelofibrosis [4]; SIMPLIFY 1, week 24, baseline TSS ≥ 10, platelets 50-100 (subgroup 2)): 42%
- SRR (myelofibrosis [4]; SIMPLIFY 1, week 24, baseline TSS ≥ 10, platelets 100-150 (subgroup 3)): 13% ‡
- spleen response compared with RUX (myelofibrosis [4]; SIMPLIFY 1, p=0.011): statistically non-inferior to RUX
